Measured values reported in patent publication US5047242A, “Azadirachtin derivative insecticides” (Native Plant Institute ("NPI"), priority 1987, dated 1991).
Values after ≈ are worked out from the molar mass of the structure shown. Like-named read-outs stand apart in the source and are kept apart here. One block for each compound: values may come before it.

How the values were obtained:
[1] = test system: Heliothis virescens; assay: Artificial diet feeding bioassay, mortality and growth inhibition in first-instar larvae; type: in vivo, Heliothis virescens (tobacco budworm); details: for LC50: Heliothis virescens, po; for EC50 (concentration causing 50% growth inhibition): Table 1, first-instar Heliothis virescens larvae, parentheses = 95% confidence limits; for EC50 (concentration causing 50% growth inhibition) / EC50: artificial diet; for insecticidal activity (in words): Heliothis virescens feeding; for EC50: Table 5, larval growth reduced to 50% of control, first instar Heliothis virescens, 95% confidence limits
Excerpt: The results of the growth inhibitory and lethal activities of azadirachtin and these 8 derivatives when fed in an artificial diet to Heliothis virescens larvae are shown in Table 1. Similar to the results of Morgan, E. D., in "Natural pesticides from the Neem tree (Azadirachta indica A. Juss), Schmutterer, H., et al., Eds., Proc. First International Neem Conference (Rottach-Egern, 1980), German Agency for Technical Corporation,Eschborn, Germany, 1982, pps. 43-52 (hereinafter "Morgan"), neither deacetylation nor hydrogenation of the carbon-carbon double bond of the dihydrofuran ring moiety of azadirachtin had any significant effect on activity of the compound against H. virescens.
Mortality and growth inhibition in first-instar Heliothis
virescens larvae fed azadirachtin and eight derivatives in an
artificial diet (I. Kubo and J. A. Klocke, In: Plant Resistance to
Insects (P. A. Helin, Ed.), ACS Symposium Series 208, American Chemical
Society, Washington, D.C. (1983), pp. 329-346.).^a
^b LC50 values are the concentrations (ppm) causing 50%
^c EC50 values are the concentrations (ppm) causing 50% growth
^d Numbers in parentheses are the 95% confidence limits determined
using the methods of Litchfield and Wilcoxon, J. Pharmacol. Exp. Ther.
An artificial diet feeding bioassay with neonate larvae of tobacco budworm (Heliothis virescens) and fall armyworm (Spodoptera frugiperda) was used as previously described (Kubo and Klocke, 1983) to detect insecticidal activities in the plant extracts to monitor fractionation, and to determine the potency of the isolated constituents and derivatives. Potency was determined either as the effective concentration (EC50) of added material that is necessary to reduce larval growth to 50% of the control values or as the lethal concentration (LC50) of added material that is necessary to kill 50% of the treated larvae. EC50 and LC50 values were determined from log probit paper and analyzed statistically by the method of Litchfield and Wilcoxon, supra.

[2] = test system: Heliothis virescens; assay: Oral injection of fifth-instar larvae, pupal and adult development (non-irradiated compounds); type: in vivo
Description: (§1) Individual larvae were injected per os on the first day of the fifth instar with 1.0 μg of either irradiated or non-irradiated compounds dissolved in 1.0 μl of 75% aqueous ethanol.
Table 2: Successful and unsuccessful pupal and adult development of
fifthinstar Heliothis Virescens larvae injected orally with 1.0 microgram
of either azadirachtin, 3deacetylazadirachtin, 22,23dihydroazadirachtin,
or 2',3',22,23tetrahydroazadirachtin.

[3] = test system: Heliothis virescens; assay: Relative activity of UV-irradiated compounds in inhibiting pupal development of fifth-instar larvae; type: in vivo; details: for Relative activity, inhibition of pupal development: relative to non-irradiated counterpart
Description: (§2) Azadirachtin, 3-deacetylazadirachtin, 22,23-dihydroazadirachtin, and 2',3',22,23-tetrahydroazadirachtin (1.0 mg/ml absolute ethanol) were placed individually in capped quartz NMR tubes (5×180 mm) and were irradiated with two UV germicidal lights (GE, G30T8, 200-280 nm, 30W) 1.8 m from the source at room temperature for up to 400 h. The controls were identical samples protected from exposure to UV radiation by wrapping with aluminum foil. At selected time intervals, aliquots from both the controls (non-irradiated) and irradiated samples were removed for high-performance liquid chromatography (HPLC) analysis and bioassay (vide infra).
as §1
Table 3: Relative activity of azadirachtin, 3deacetylaza-dirachtin,
22,23dihydroazadirachtin, and 2',3',22,23tetrahydroazadirachtin, all of
which had been exposed for 15, 30, 90, 200, and 400 hours to UV radiation
inhibiting the pupal development of fifthinstar Heliothis virescens
(§3) larvae. Relative activity is defined as the percentage of larvae injected

[4] = test system: Heliothis virescens; assay: Relative activity of UV-irradiated compounds in inhibiting adult development of fifth-instar larvae; type: in vivo; details: for Relative activity, inhibition of adult development: relative to non-irradiated counterpart
Description: as §2, §1
Table 4: Relative activity of azadirachtin, 3deacetylaza-dirachtin,
22,23dihydroazadirachtin, 2',3',22,23tetrahydroaza-dirachtin, all of whic
had been exposed for 15, 30, 90, 200, and 400 hours to UV radiation, in
inhibiting the adult development of fifthinstar Heliothis virescens
as §3
relative to the percentage injected with its nonirradiated counterpart

[5] = UV stability in ethanol by reversed phase HPLC; type: physicochemical
Description: Stability of Azadirachtin derivatives was determined as follows:
as §2
Analytical reversed phase HPLC was performed on a phenyl (5μm) column run isocratically with acetonitrile-water (3:7) (Yamasaki et al.) Peaks were detected at 214 nm. The irradiated samples were compared with their corresponding non-UV-irradiated controls by measuring the height of the peak eluting at the appropriate Rt for each irradiated compound relative to each one's non-irradiated control. Results are expressed as the percent of the initial sample concentration remaining relative to the control. Each time point was done in at least triplicate fashion.

[6] = read-out: LC50 (concentration causing 50% mortality)
[7] = 1.0 microgram injected orally, fifth-instar, non-irradiated
[8] = 1.0 microgram injected orally, % of larvae

SMILES: C/C=C(\C)C(=O)OC1CC(OC(C)=O)C2(C(=O)OC)COC3C2C12COC(OC)(C(=O)OC)C2C(C)(C12OC1(C)C1CC2OC2OC=CC21O)C3O (stereo not drawn) [11-O-methylazadirachtin]
LC50 [1, 6]: 25 µg/mL (≈ 34 µM) | EC50 (concentration causing 50% growth inhibition) [1]: 5.00 (1.54-16.25) ppm

kinetics of UV degradation (in words) [5]: first-order reaction | UV lability (in words) ([5]; UV irradiation, HPLC): UV-labile
SMILES: C/C=C(\C)C(=O)OC1CC(O)C2(C(=O)OC)COC3C2C12COC(O)(C(=O)OC)C2C(C)(C12OC1(C)C1CC2OC2OC=CC21O)C3O (stereo not drawn) [3-deacetylazadirachtin]
EC50 (concentration causing 50% growth inhibition) [1]: 0.09 (0.05-0.17) ppm | Number Adults [2, 7]: 10 Number | Number Adults Deformed [2, 7]: 10 Number | Number Pupae [2, 7]: 56 Number | Unsuccessful Larvae-Pupae (number) [2, 7]: 13 Number | Unsuccessful Pupae-Adult (number) [2, 7]: 4 Number | Adults (%) [2, 8]: 5.9% | Adults Deformed (%) [2, 8]: 5.9% | Pupae (%) [2, 8]: 33.1% | Unsuccessful Larvae-Pupae (%) [2, 8]: 7.7% | Unsuccessful Pupae-Adult (%) [2, 8]: 2.4% | inhibition of pupation (in words) ([2]; non-irradiated, 1.0 μg per os): less effective | Relative activity, inhibition of pupal development ([3]; 15 h UV exposure): 115.2% | Relative activity, inhibition of pupal development ([3]; 30 h UV exposure): 135.0% | activity retained after 90 h of exposure to UV radiation (in words) ([3]; 90 h UV): retained full activity | Relative activity, inhibition of pupal development ([3]; 90 h UV exposure): 139.5% | ability to inhibit pupation after UV (in words) ([3]; 200 h UV): did decline | Relative activity, inhibition of pupal development ([3]; 200 h UV exposure): 86.8% | ability to inhibit pupation after UV (in words) ([3]; 400 h UV): even greater decline | activity retained after 400 h of exposure to UV radiation ([3]; 400 h UV): approximately 50% | Relative activity, inhibition of pupal development ([3]; 400 h UV exposure): 41.0% | ability to inhibit pupation after UV (in words) ([3]; up to 90 h UV): not appreciably reduced | Relative activity, inhibition of adult development ([4]; 15 h UV exposure): 103.2% | Relative activity, inhibition of adult development ([4]; 30 h UV exposure): 106.3% | Relative activity, inhibition of adult development ([4]; 90 h UV exposure): 106.3% | ability to inhibit larvae from reaching the adult stage after UV (in words) ([4]; 200 h UV): remained substantially unchanged until 400 h of irradiation | Relative activity, inhibition of adult development ([4]; 200 h UV exposure): 96.0% | Relative activity, inhibition of adult development ([4]; 400 h UV exposure): 72.3% | degradation following 400 h of exposure to UV radiation (in words) [5]: none of the three compounds remained in their original state

SMILES: CC(=O)OCC12C(OC(=O)/C=C/c3ccccc3)CC(OC(C)=O)C3(C)COC(C31)C(O)C(C)(C13OC1(C)C1CC3OC3OC=CC31O)C2C(C)=O (stereo not drawn) [Compound 13, 1-cinnamoyl-3,19-0,0-diacetylmelianolone]
insecticidal activity (in words) [1]: approximately half that of azadirachtin | LC50 [1]: 1.5 µg/mL (≈ 2.08 µM) | EC50 [1]: 0.12 ppm

SMILES: CC(=O)OC1CC(OC(=O)/C=C/c2ccccc2)C2(CO)C3C(OCC13C)C(O)C(C)(C13OC1(C)C1CC3OC3OC=CC31O)C2C(C)=O (stereo not drawn) [Compound 12, 1-cinnamoyl-3-0-acetylmelianolone]
insecticidal activity (in words) [1]: approximately half that of azadirachtin | LC50 [1]: 1.5 µg/mL (≈ 2.2 µM) | EC50 [1]: 0.15 ppm

SMILES: C/C=C(\C)C(=O)OC1CC(OC(C)=O)C2(C(=O)OC)COC3C2C12COC(OC(=O)OC)(C(=O)OC)C2C(C)(C12OC1(C)C1CC2OC2OCCC21OC(=O)OC)C3O (stereo not drawn) [11,20-O, O-dicarbomethoxy-22,23-dihydroazadirachtin]
LC50 [1, 6]: 90 µg/mL (≈ 107 µM) | EC50 (concentration causing 50% growth inhibition) [1]: 29.0 (20.3-41.5) ppm

SMILES: COC(=O)C1(O)OCC23C(O)CC(OC(C)=O)C4(C(=O)OC)COC(C42)C(O)C(C)(C24OC2(C)C2CC4OC4OCCC42O)C13 (stereo not drawn) [1-detigloyl-22,23-dihydroazadirachtin]
EC50 (concentration causing 50% growth inhibition) [1]: 0.59 (0.30-1.14) ppm
